Experiments:
[1] = system: potential s-RNYs-target mRNAs; assay: Quantitative RT-PCR of potential s-RNYs-target mRNAs in PA-treated BMDMs; format: cell-based, mouse; conditions: of 32 mRNAs (about 62%), FIG. 11
Description: FIG. 11: Quantitative RT-PCR analysis of the potential s-RNYs-target mRNAs in BMDMs transfected with siAgo2, 2′-OMe-RNA antisense oligonucleotides (AS) to s-RNYs, or control. BMDMs were left unstimulated (black column) or stimulated with 0.25 mM of PA for 18 hr, and total RNA was isolated and analyzed. Data were normalized by U2 snRNA and are presented as mean and s.d. (n=6).
BMDMs and NIH-3T3 cells (ATCC) were transiently transfected for 48 hr with Lipofectamine 2000 (Invitrogen) according to the manufacturer's instructions. siRNAs were transfected at the final concentration of 24 nM, while 2′-OMe-RNA antisense oligonucleotides to s-RNYs (Eurogentec) were transfected at the final concentration of 100 nM. […]
RNA expression by quantitative RT-PCR was carried out by using standard procedures. […] For s-RNYs detection by quantitative RT-PCR a stem-loop quantitative RT-PCR method was used according to Chen et al. (Chen, C., et al. (2005). Nucleic acids research 33, e179). […] This method allows the detection of the s-RNYs derived from only the 5′ end of the precursor by quantitative RT-PCR analysis, namely the s-RNY1-5p and s-RNY3-5p from mouse and s-RNY1-5p, s-RNY3-5p, and s-RNY4-5p from human. Quantitative RT-PCRs using Sybr Green and TaqMan (Invitrogen) for cel-miR-39 were performed on a StepONE system (Applied Biosystem). […]

[2] = system: bone marrow-derived macrophages (BMDMs); assay: s-RNY expression in stimulated BMDMs, stem-loop quantitative RT-PCR; format: cell-based, mouse; conditions: in combination with thapsigargin (ER stress)
Description: Bone marrow cells were collected from femurs and tibias of ten-week-old male C57BL/6J mice by flushing with sterile medium as previously described (T. Ruggiero, M. et al (2009) FASEB J 23:2898-2908). To differentiate into macrophages, bone marrow cells (10^6) were plated in 10-cm plates in 7 ml of BMDM medium (DMEM supplemented with 20% low-endotoxin fetal bovine serum, 30% L929-cell conditioned medium, 1% I-glutamine, 1% Pen/Strep, 0.5% Na pyruvate, and 0.1% β-mercaptoethanol), and fed with 2.5 ml of fresh medium every 2 days for 7 days. Human primary macrophages were prepared from peripheral blood monocytes obtained from healthy donors (Jacquel, A., et al. (2012). Blood 119, 4527-4531) in agreement with the French legislation on human biomedical research. All participants provided written informed consent attesting they had received all the information they needed about the study and they agreed in accordance with appropriate national regulations.
RNA expression by quantitative RT-PCR was carried out by using standard procedures. Briefly, for mRNA, total RNA was isolated from cells using Trizol and cDNA was synthesized with a random hexonucleotides using Superscript III (Invitrogen). For s-RNYs detection by quantitative RT-PCR a stem-loop quantitative RT-PCR method was used according to Chen et al. (Chen, C., et al. (2005). Nucleic acids research 33, e179). Briefly, total RNA was isolated from cells, tissue, or immunoprecipitation using Trizol (Invitrogen) according to the manufacturer's instructions. RNA extraction from extracellular medium, blood plasma, and serum was performed as previously described (Turchinovich, A., et al (2011). Nucleic acids research 39, 7223-7233). Briefly, 1.2 ml of Trizol LS were added to 0.4 ml of blood plasma, serum or media. Then (i) 5 pg of synthetic miRNA-39 from Caenorhabditis elegans (cel-miR-39) were added as a spike-in control for purification efficiency; (ii) 1.2 μl of glycogen (10 mg/ml) were added to enhance the efficiency of RNA column binding. Purification of extracted total RNA was performed with miRNeasy columns (Qiagen) according to the manufacturer's instructions. RNA was eluted in 30 μl of RNase-free water. cDNA was synthesized using a hairpin long oligonucleotide. This method allows the detection of the s-RNYs derived from only the 5′ end of the precursor by quantitative RT-PCR analysis, namely the s-RNY1-5p and s-RNY3-5p from mouse and s-RNY1-5p, s-RNY3-5p, and s-RNY4-5p from human. Quantitative RT-PCRs using Sybr Green and TaqMan (Invitrogen) for cel-miR-39 were performed on a StepONE system (Applied Biosystem). The primer sequences are detailed in Table 1. […]

[3] = system: s-RNY1-3p binding sites (BS) from KFL2 mRNA sequence in NIH-3T3 cells; assay: Luciferase reporter assay with s-RNY1-3p binding sites from KLF2 mRNA; format: cell-based; conditions: PA treatment, FIG. 12C
Text: FIG. 12: (A) RNA duplex expected to result from base pairing of KFL2 mRNA with s-RNY1-3p. A-U and G-C base pairs are represented by solid lines; G-U wobble base pairs are represented by dotted lines, shown herein as SEQ ID NOS 58 and 59, respectively. (B) The sequence of the predicted target site of KFL2 mRNA from the indicated species, shown herein as SEQ ID NOS 60-63, respectively. The s-RNY1-3p seed complementary sequence is enclosed by a black box. Nucleotide conservation across the species is indicated by asterisks. (C) Relative luciferase activity of reporter constructs containing two either wt or mutant s-RNY1-3p binding sites (BS) from KFL2 mRNA sequence in NIH-3T3 cells transfected with either 2′-OMe-RNA antisense oligonucleotide to s-RNY1-3p or control. Cells were left unstimulated or stimulated with 0.25 mM of PA for 18 hr. The data were normalized using Renilla activity. Data are presented as mean and s.d. (n=4). Student's t-test: **P<0.01.
NIH-3T3 cells (80% confluence in 96-well plates) were transfected with Lipofectamine 2000® according to the manufacturer's instructions. Luciferase reporter assay was performed as previously described (Repetto, E., et al. (2012). PLoS genetics 8, e1002823).

BMDMs [4] = assay: Apoptosis assay in BMDMs (annexin V / Dapi, flow cytometry); format: cell-based, mouse; conditions: FIGS. 13A and 13B
Description: FIG. 13: Apoptotic data by fluorocytometry for BMDMs overexpressing s-RNYs, transfected with either 2′-OMe-RNA antisense oligonucleotides to s-RNYs or control. BMDMs were stimulated with 0.25 mM of PA for 18 hr (A), 0.25 μM thapsigargin (Tg) in combination with […] of oxLDL for 28 hr (B), or left unstimulated (C). Percentage of apoptotic and necrotic cells was determined by staining with Dapi and annexin […]. Data are presented as mean and s.d. (n=3). Apoptosis was assayed in BMDMs by staining with Alexa 488-conjugated annexin V and Dapi as previously described (Jacquel, A., et al., 2012. Blood 119(19): 4527-4531). The number of annexin V- and Dapi-positive cells was counted and expressed as a percent of the total number of cells from duplicate wells.

p38, NF-κB, JNK = assay: p38, NF-κB and JNK signaling activation in BMDMs; format: cell-based, mouse; conditions: time course, data not shown
Description: BMDMs and NIH-3T3 cells (ATCC) were transiently transfected for 48 hr with Lipofectamine 2000 (Invitrogen) according to the manufacturer's instructions. siRNAs were transfected at the final concentration of 24 nM, while 2′-OMe-RNA antisense oligonucleotides to s-RNYs (Eurogentec) were transfected at the final concentration of 100 nM. When required, cell lysates were incubated at room temperature with RNase A (10 mg/ml, Ambion) for 30 min. Three-hundred micrograms of protein was immunoprecipitated with Protein A-Dynabeads (Invitrogen)-coupled antibodies for 16 hr at 4° C. with rotation. Immunoprecipitates were washed four times with lysis buffer and resuspended in SDS protein loading buffer. Proteins were subjected to SDS-PAGE, electroblotted onto PVDF membranes, and probed with different antibodies as indicated.
Recombinant Ago2 and hnRNP A1 were purchased from Sino Biological Inc. and CliniSciences, respectively, while recombinant KSRP was a gift from Dr. R. Gherzi. Mouse monoclonal anti-hnRNP A1 (4B10), mouse monoclonal anti-c-Myc (9E10), goat anti-actin (1-19), and IκBα (H-4) antibodies were purchased from SantaCruz. Rabbit anti-La/SSB and anti-Ro60 (TROVE2) antibodies were purchased from GmbH. Anti-Ago2 antibody was purchased from Wako Chemicals while rabbit anti-KLF2 and anti-NOS2A antibodies were from Millipore. Anti-KSRP antibody was a gift from Dr. R. Gherzi. […]

BMDMs [5] = assay: Quantitative RT-PCR of s-RNYs from the medium of BMDMs; format: cell-based, mouse; conditions: 0.25 mM PA 18 hr, FIG. 14B
Description: FIG. 14: (A) Quantitative RT-PCR analysis of the indicated s-RNYs in BMDMs incubated with 0.25 mM of PA the indicated time. The data were normalized by U2 snRNA. (B) Quantitative RT-PCR analysis of the indicated s-RNYs from the medium of BMDMs. Cells were left unstimulated or incubated with 0.25 mM PA for 18 hr. Data were normalized by using the synthetic non-mammalian cel-miR-39, which was added to the samples before the RNA extraction. Data are presented as mean and s.d. (n=8).
RNA expression by quantitative RT-PCR was carried out by using standard procedures. Briefly, for mRNA, total RNA was isolated from cells using Trizol and cDNA was synthesized with a random hexonucleotides using Superscript III (Invitrogen). For s-RNYs detection by quantitative RT-PCR a stem-loop quantitative RT-PCR method was used according to Chen et al. (Chen, C., et al. (2005). Nucleic acids research 33, e179). Briefly, total RNA was isolated from cells, tissue, or immunoprecipitation using Trizol (Invitrogen) according to the manufacturer's instructions. […] This method allows the detection of the s-RNYs derived from only the 5′ end of the precursor by quantitative RT-PCR analysis, namely the s-RNY1-5p and s-RNY3-5p from mouse and s-RNY1-5p, s-RNY3-5p, and s-RNY4-5p from human. Quantitative RT-PCRs using Sybr Green and TaqMan (Invitrogen) for cel-miR-39 were performed on a StepONE system (Applied Biosystem). […]

[6] = system: bone marrow-derived macrophages (BMDMs); assay: s-RNY expression in stimulated BMDMs, stem-loop quantitative RT-PCR; format: cell-based, mouse; conditions: for s-RNY expression: stimulus given alone
[7] = system: human primary macrophages; assay: Northern blot of s-RNYs in human primary macrophages; format: cell-based; conditions: data not shown

Compound	s-RNY expression [2]	s-RNY expression [6]	further results
5′-GUUGUAUUGUUUAGCGAUU-3′ (listed as RNA, chemistry not given here) [siAgo2]	–	–	potential target mRNAs whose expression was Ago2 and s-RNYs dependent [1]: at least 20/32
CCCCCCCCCCCCCCCC(=O)O [PA, palmitic acid]	increased markedly	induced	luciferase activity of the mutant reporter construct [3]: not affected; luciferase activity of the reporter construct containing the wt sequence [3]: repressed; apoptosis in macrophages treated with pro-atherogenic stimuli (BMDMs [4]): apoptosis activation; NF-κB activation (IκBα degradation) (p38, NF-κB, JNK; after 9 hr of treatment): enhanced; p38 activation (p38 phosphorylation) (p38, NF-κB, JNK; starting by 9 hr): enhanced; enrichment of s-RNYs in extracellular environment compared to control (BMDMs [5]): ~100 fold; time by which s-RNY expression was induced ([6]; 0.25 mM PA, FIG. 14A): ≤ 9 h
CN[C@@H]1C[C@H]2O[C@@](C)([C@@H]1OC)n1c3ccccc3c3c4c(c5c6ccccc6n2c5c31)C(=O)NC4 [STS, staurosporine]	–	–	expression of s-RNYs (s-RNY1-5p, s-RNY1-3p, s-RNY3-5p and s-RNY4-5p) [7]: induced
CCCCC/C=C\C/C=C\CCCCCCCC(=O)O [linoleic acid]	did not induce	did not induce	–
CCCCCCCC/C=C\CCCCCCCC(=O)O [oleic acid]	did not induce	did not induce	–
CCCCCCCCCCCCCCCCCC(=O)O [stearic acid]	increased markedly	induced	–
C/C=C(/C)C(=O)O[C@H]1C(C)=C2[C@H]([C@@H]1OC(=O)CCCCCCC)[C@@](C)(OC(C)=O)C[C@H](OC(=O)CCC)[C@@]1(O)[C@H]2OC(=O)[C@@]1(C)O [thapsigargin]	–	no effect	–
